Reference: patent US20130143304A9, “LIGF-TYPE SYSTEMS FOR BIOCONVERSION OF LIGNIN-DERIVED COMPOUNDS” (priority 2010, published 2013)

B1: ligE1: N. aromaticivorans beta-etherase, glutathione S-transferase-like polypeptide, recombinantly expressed in E. coli (protein)
chain: MAANNTITFYDLALSTGATISPFVWATKYALKHKGFDLDVVPGGFTGILERTGGKTERLPAIVDDGEFVLDSWGIVEYLDAKYPDRPVLIPHESVAATLKALDNWFWNAAVGPWMFCFCQDYRDLSLPQDHEYVTHSREKMLGRKLEEVQAGREERLPKISAALEPLRAALAQHQWLGGSSPNYADYRIMGGILFTASVCKTPVLANDDPLRDWIERCLDLYGGLGRHPGLFPLFGLEQREGDPDLFNRAAGQGGIYKRNTGPESTRAETQRITEGMKK
B2: LigF2: N. aromaticivorans beta-etherase, glutathione S-transferase-like polypeptide, recombinantly expressed in E. coli (protein)
chain: MALKYYHAEPLANSLKSMVPLKEKGLAYESIYVDLHKFEQHQPWFTAINPEGQVPVLDHDGTIITHTTVINEYLEDAFPDAQPADAPLRPRDPVGAARMRYWNKFIDEHVMNYVSMHGWHRMVGVIARNIASGDFEKLLESIPLPDQRKKWATARSGFSEADLANATAKIEYALDKVEKQLGETKWLAGDTYTLADINFYSHCGAMVERMFPEMEVARRAPRLCEWRDRVAARPAVAEALKSEDRTAPGLRVWSGEVR
B3: ligE: S. paucimobilis ligE beta-etherase, positive control polypeptide (protein)
chain: MARNNTITLYDLQLESGCTISPYVWRTKYALKHKGFDIDIVPGGFTGILERTGGRSERVPVIVDDGEWVLDSWVIAEYLDEKYPDRPMLFEGPTQKNLMKFLDNWLWSTAVGPWFRCYILDYHDLSLPQDRDYVRWSREQWFLGGQRLEDVQAGREDRLPLVPPTLEPFRRILAETKWLGGDQPNFADYSALAVFLWTASVARTPPLTEDDPLRDWLDRGFDLFDGLGRHPGMNPLFGLKLREGDPEPFVRQTGPAGAGGQALNKGPQTTKMPPRVAEKAD

Tested on: yeast Saccharomyces cerevisiae
Assay: not given
Conditions: each compound alone; cited from earlier work

**Q.** Which “antifungal activity against the yeast Saccharomyces cerevisiae” value (from here on “antifungal activity”) does the source give for `O=C(O)/C=C/c1ccccc1O` [o-coumaric acid] here?
**A.** significant antifungal activities

**Q.** With `COc1cc(C(=O)O)ccc1O` [vanillic acid] as the molecule, how does the “antifungal activity” value read?
**A.** significant antifungal activities

**Q.** Which “antifungal activity” value does the source give for `O=C(O)/C=C/c1cccc(O)c1` [m-coumaric acid] here?
**A.** significant antifungal activities

**Q.** For `O=C(O)/C=C/c1ccc(O)cc1` [p-coumaric acid], which “antifungal activity” value is on record?
**A.** significant antifungal activities

**Q.** Which “antifungal activity” value does the source give for `O=C(O)C=Cc1ccccc1` [cinnamic acid] here?
**A.** significant antifungal activities

**Q.** Which “antifungal activity” value does the source give for `COc1cc(CCC(C)=O)ccc1O` [vanillylacetone] here?
**A.** significant antifungal activities

**Q.** Which “antifungal activity” value does the source give for `COc1ccc(C=O)cc1OC` [Veratraldehyde] here?
**A.** significant antifungal activities

Tested on: not listed separately
Assay: in vitro biochemical assay for beta-etherase activity on fluorescent substrate MUAV (clarified E. coli cell extracts, 4MU fluorescence)
Conditions: MUAV substrate
Description: This example describes a method for gene expression in E. coli, as well as beta-etherase biochemical assays. Expression of known and putative beta-etherase genes was performed using 5 ml cultures of the recombinant E. coli strains described herein in Luria Broth medium by induction of gene expression using isopropylthiogalactoside (IPTG) to a final concentration of 0.1 mM. Following induction, and cell harvest, the cells were disrupted using either sonication or the BPER (Invitrogen) cell lysis system.
In vitro reactions were performed in a total volume of 200 ul and contained: 25 mM TrisHCl pH 7.5; 0.5 mM dithiothreitol; 1 mM glutathione; 0.05 mM or 0.1 mM MUAV; 10 ul of clarified cell extract used to initiate the reactions. Following incubation for 2.5 hours at room temperature, a 50 ul sample of the reactions was terminated using 150 uL of 300 mM glycine/NaOH buffer pH 9. The formation of 4 methylumbelliferone (4MU) upon hydrolysis of the aryl ether bond was monitored by the increase in fluorescence at λex=360 nm and λem=450 nm using a Spectramax UV/visible/fluorescent spectrophotometer.
The total protein concentrations of the cell lysates were determined using the BCA reagent system for protein quantification (Pierce). […]

**Q.** For B1, which “fold more efficient than S. paucimobilis ligE beta-etherase” value is on record?
**A.** approximately 75 fold

Same assay, conditions: MUAV substrate; concentration not given

**Q.** For B2, which “total activity (beta-etherase)” value is on record?
**A.** 1206 rfu/ug

Same assay, conditions: reactions containing 0.1 mM MUAV substrate; E. coli cell extracts expressing the protein

**Q.** For B1, which “total activity (beta-etherase)” value is on record?
**A.** 529 rfu/ug

**Q.** For B3, which “total activity (beta-etherase)” value is on record?
**A.** 7 rfu/ug

Tested on: Escherichia coli
Assay: not given
Conditions: benzaldehyde derivatives; each compound alone; cited from earlier work

**Q.** With `O=Cc1ccccc1O` [2-hydroxybenzaldehyde] as the molecule, how does the “antibacterial activity against Escherichia coli” value (from here on “antibacterial activity”) read?
**A.** antibacterial activity

**Q.** With `O=Cc1ccc(O)cc1O` [2,4-dihydroxybenzaldehyde] as the molecule, how does the “antibacterial activity” value read?
**A.** antibacterial activity

**Q.** For `COc1cc(O)cc(OC)c1C=O` [4-hydroxy-2,6-dimethoxybenzaldehyde], which “antibacterial activity” value is on record?
**A.** antibacterial activity

**Q.** Which “antibacterial activity” value does the source give for `COc1ccc(O)c(C=O)c1` [2-hydroxy-5-methoxybenzaldehyde] here?
**A.** antibacterial activity

**Q.** For `COc1cccc(C=O)c1O` [2-hydroxy-3-methoxybenzaldehyde], which “antibacterial activity” value is on record?
**A.** antibacterial activity

**Q.** For `O=Cc1c(O)cc(O)cc1O` [2,4,6-trihydroxybenzaldehyde], which “antibacterial activity” value is on record?
**A.** antibacterial activity

**Q.** Which “antibacterial activity” value does the source give for `O=Cc1cc(O)ccc1O` [2,5-dihydroxybenzaldehyde] here?
**A.** antibacterial activity

**Q.** Which “antibacterial activity” value does the source give for `O=Cc1cccc(O)c1O` [2,3-dihydroxybenzaldehyde] here?
**A.** antibacterial activity

**Q.** For `O=Cc1ccc(O)c(O)c1O` [2,3,4-trihydroxybenzaldehyde], which “antibacterial activity” value is on record?
**A.** antibacterial activity

Same assay, conditions: known; each compound alone; cited from earlier work

**Q.** With `O=Cc1ccco1` [furfural] as the molecule, how does the “antimicrobial activity against Escherichia coli” value (“antimicrobial activity” for short) read?
**A.** antimicrobial activity

**Q.** For `O=Cc1ccc(O)cc1` [4-hydroxybenzaldehyde], which “antimicrobial activity” value is on record?
**A.** antimicrobial activity

**Q.** Which “antimicrobial activity” value does the source give for `O=Cc1ccc(CO)o1` [5-hydroxymethylfurfural] here?
**A.** antimicrobial activity

**Q.** With `COc1cc(C=O)cc(OC)c1O` [syringaldehyde] as the molecule, how does the “antimicrobial activity” value read?
**A.** antimicrobial activity

**Q.** Which “antimicrobial activity” value does the source give for `COc1cc(C=O)ccc1O` [vanillin] here?
**A.** antimicrobial activity
